Where “and” joins values, the source holds several entries; their conditions need not be identical. Identical values can stand only once.
Legend:
[1] = system: SUM149 breast cancer cells; experiment: Nude mice with orthotopically injected SUM149 cells; format: in vivo
Source text: In this study, the ability of tetrathiomolybdate (TM) to abrogate or retard the growth of tumors in the mammary pads of nude mice after orthotropic injection of human breast cancer cells was studied. The highly angiogenic inflammatory breast cancer cell line called SUM149 was selected for this study. Given its high propensity to form palpable tumors within 2 weeks of injection into the mammary of 80-100% of the nude mice injected, this cell line posed a stringent test of the ability of TM to impair tumor progression.
Three groups of 5 nude mice each were set up in separate cages. Groups 2 and 3 received TM in the drinking water to average an intake of 1.2 mg/day/mouse, starting at day −7. Groups 1, 2, and 3 were injected on day 0 with 10^6 SUM149 breast cancer cells in the second thoracic mammary fat pad. On day 34, as no palpable tumors were noticeable in any of the mice in the treatment groups, TM was skipped on groups 2 and 3, and then TM was restarted on group 2 at a dose of 0.6 mg/day/mouse, while TM was resumed at full dose (1.2 mg/mouse/day) in group 3.
The developing tumors were measured approximately twice weekly, and the average of the product of the bi-dimensional perpendicular diameters for each group versus time is plotted in FIG. 3. The tumors in the control group grew relatively rapidly and all animals developed tumors. […] This dose decreases copper to approximately 10-20% of baseline levels. It is this degree of copper deficiency, well tolerated in both mice and humans, which appears to be required to inhibit tumor angiogenesis.

metastatic solid tumors = experiment: Phase I trial: clinical and radiologic response of metastatic cancer; format: in vivo, human
Source text: Patients with effusions or bone marrow involvement as the only manifestations of disease, and those who had severe intercurrent illness requiring intensive management or were transfusion dependent, were excluded. […] Other requirements were demonstrable progression of disease in the previous 3 months, after standard treatments such as surgery, chemotherapy, radiotherapy, and/or immunotherapy, or progressive disease after declining conventional treatment modalities.
Six patients were to be enrolled at each dose level. After 4 patients were enrolled at level I, if one patient experienced dose-limiting toxicity (DLT) (defined as Hct<80% of baseline), 2 more patients were enrolled at level I. If no DLT was observed, patients were enrolled at the next dose level. Treatment was allowed to continue beyond induction of target copper deficiency, if the patients experienced a partial or complete clinical response or achieved clinical stable disease by the following definitions. Complete response is defined as the disappearance of all clinical and laboratory signs and symptoms of active disease. Partial response is defined as a 50% or greater reduction in the size of measurable lesions defined by the sum of the products of the longest perpendicular diameters of the lesions, with no new lesions or lesions increasing in size. Minor response is defined as a 25-49% reduction in the sum of the products of the longest perpendicular diameters of one or more measurable lesions, no increase in size of any lesions and no new lesions; stable disease is any change in tumor measurements not represented by the criteria for response or progressive disease, which is defined as an increase of 25% or more in the sum of the products of the longest perpendicular diameters of any measurable indicator lesions, compared to the smallest previous measurement or appearance of a new lesion. Because copper deficiency is not a cytotoxic treatment modality, the patients who provide information about the efficacy of TM for long-term therapy, in this population of patients with advanced cancer, are primarily those who remained within the target Cp window of (20±10)% of baseline for over 90 days, without disease progression
Extent of disease was evaluated at entry, at the point of achievement of copper deficiency, defined as Cp at or below 20% of baseline, and every 10-12 weeks thereafter. Computer-assisted tomography or magnetic resonance imaging were used as appropriate for conventional measurement of disease at all known sites and for evaluation of any potential new sites of disease. Angiogenesis-sensitive ultrasound with 3-dimensional Doppler analyses was employed in select cases, as adjunct to conventional imaging, to evaluate the blood flow to the tumors at different time points.
Blood flow was measured by ultrasound in select patients with accessible lesions, at the time they became copper deficient, and at variable intervals of 8-16 weeks thereafter. 3D scanning was performed on a GE Logiq 700 ultrasound system, with the 739L, 7.5 MHz linear array scanhead. The scanning and vascularity quantification techniques were as previously described (Carson et al., 1998; LeCarpentier et al., 1999).

[2] = Target Cp >90 days, + = on therapy

Substance: tetrathiomolybdate [TM]
- palpable tumors ([1]; 1.2 mg/day/mouse in drinking water from day −7): no tumors were palpable until TM was skipped on day 34
- tumor growth after TM skipped on day 34 ([1]; TM restarted at ½ dose (0.6 mg/day/mouse)): the tumors grew more rapidly
- tumor growth after TM skipped on day 34 ([1]; TM resumed at full dose 1.2 mg/day/mouse): only very small tumors have grown
- copper level ([1]; full dose 1.2 mg/day/mouse): 10-20 % of baseline levels
- decrease of copper levels ([1]; ½ dose of TM (0.6 mg/day/mouse)): 50%
- duration of stable disease, patient with previously untreated metastatic breast cancer (metastatic solid tumors; TM alone): over 6 months
- No. of Patients: Disease progression (metastatic solid tumors; Target Cp <90 days): 7
- No. of Patients: Stable disease with partial regression of lung lesions (metastatic solid tumors; Target Cp <90 days): 1
- Duration of Cu Deficiency: Stable disease with partial regression of lung lesions (metastatic solid tumors; Target Cp <90 days, + = on therapy): 49+ days
- No. of Patients: Disease progression at one site, stable elsewhere (metastatic solid tumors; Target Cp >90 days): 1/6
- No. of Patients: Stable disease (metastatic solid tumors; Target Cp >90 days): 4/6
- No. of Patients: Stable disease with partial regression of lung lesions (metastatic solid tumors; Target Cp >90 days): 1/6
- Duration of Cu Deficiency: Stable disease, individual patients (metastatic solid tumors; Target Cp >90 days, * = patient discontinued therapy, + = on therapy): 159 days and 329 days and 351 days and 413 days
- Duration of Cu Deficiency (Average): Stable disease (metastatic solid tumors; [2]): 313 days
- Duration of Cu Deficiency: Disease progression at one site, stable elsewhere (metastatic solid tumors; [2]): 120+ days
- Duration of Cu Deficiency: Stable disease with partial regression of lung lesions (metastatic solid tumors; [2]): 120+ days
- disease status, patient with metastatic chondrosarcoma (metastatic solid tumors; long-term therapy): stable disease after 12 months of copper deficiency
- lung lesions in two patients with stable disease (metastatic solid tumors; observation periods at target Cp of 120 and 49 days): complete disappearance of some lung lesions and decrease in size of other lung lesions
- patients with stable disease (metastatic solid tumors; patients copper deficient at the target range for at least 90 days): 5 out of 6 and 5/6
- disease progression after discontinuation of TM therapy (metastatic solid tumors; patients removed from protocol): much more rapid rates of progression of disease
- decrease in blood flow to tumor mass by 3D-ultrasound (metastatic solid tumors; rib metastasis from renal cell carcinoma, approximately 8 weeks after reaching target copper deficiency): 4.4 fold

Reference: patent US7438931B2, “Methods and compositions for the treatment of angiogenic diseases” (The Regents of The University of Michigan, priority 1998, dated 2008)
